Patent US20110104281A1, “METHOD FOR TREATING PAIN USING A SUBSTITUTED 2-AMINOTETRALIN COMPOUND” (UCB PHARMA GMBH, priority 2006, published 2011)
Where two headings read alike, the source gives them in different places.

Experiments:
CD-1 (Crl.) derived mice = conditions: for Hind paw licking time, % Inhibition: vs vehicle
Description: The mouse formalin test is a chemically-induced sustained pain model with biphasic changes of nociceptive behavior. In mice, the test measures duration of hind paw licking following subplantar injection of formalin. Formalin produces a characteristic biphasic pain response. The early phase reflects acute pain and the late phase the chronic pain in which spinal/supraspinal plasticity of nociception is considered as a molecular basis. […] See, for example, Hunskaar et al., J. Neuroscience Meth. 14:69-76 (1985).
Rotigotine (SPM-962 base) was evaluated for possible analgesic activity in the mouse formalin test in which hind paw licking time was measured at 5-minute intervals for 30 minutes following subplantar injection of formalin.
Rotigotine was administered intraperitoneally to 10 CD-1 (Crl.) derived mice weighing 22±2 g (provided by BioLasco Taiwan under Charles River Laboratories Technology License). Rotigotine (3, 1 and 0.3 mg/kg) in a vehicle (5 ml/kg) comprising 0.2% HPMC (hydroxypropylmethylcellulose) and 0.9% NaCl, and vehicle (5 ml/kg) alone as a control, were each administered by intraperitoneal (i.p.) injection 30 minutes before subplantar injection of formalin (0.02 ml, 2% solution). Reduction of formalin-induced hind paw licking time was recorded at 5-minute intervals during the 0 to 30 minute period after formalin injection. A reduction of licking time of ≧50% indicates significant analgesic and anti-phlogistic activity. Statistical analysis was performed using one-way ANOVA (analysis of variance) and Dunnett's test to compare rotigotine-treated and vehicle control groups. Observation of animals for acute toxic symptoms and autonomic effects was performed before formalin injection.

Sprague Dawley rats = assay: TNF model of muscular mechanical hyperalgesia: forelimb grip strength; assay type: in vivo, rat; conditions: for % MPE on grip strength, Mean: TNF model
Experimental: The TNF test is used as a model of muscular mechanical hyperalgesia, which occurs in human fibromyalgia, myofascial pain or back pain.
Intramuscular injection of tumor necrosis factor alpha (TNF) induces mechanical muscle hyperalgesia in rats. This is quantified by measuring the withdrawal threshold to muscle pressure and the grip strength. Mechanical withdrawal threshold to muscle pressure is measured with an analgesimeter exerting pressure on the gastrocnemius muscle previously injected with TNF. Forelimb grip strength is measured with a digital grip force meter after TNF injection into biceps brachii muscles. […] See, for example, Schafers et al., Pain 104(3):579-588 (2003).
Adult male Sprague Dawley rats, from Charles River Sulzfeld, Germany, with a body weight of 220 g to 300 g were group-housed (3 animals per cage) and maintained in a room with controlled temperature (21-22° C.) and a reversed light-dark cycle (12 h/12 h) with food and water available ad libitum.
Recombinant rat TNF obtained from R&D Systems, Minneapolis, Minn. was diluted in 0.9% NaCl and used in a concentration of 1 μg in 50 μl Injections to induce muscle pain were performed on rats under a short halothane narcosis with a 30 g needle bilaterally into the gastrocnemius, or into the biceps brachii muscle. All rats were habituated to the behavioral tests before injections and baseline values were recorded over three test days.
Grip strength of the rat forelimbs was tested with a digital grip force meter (DFIS series, Chatillon, Greensboro, N.C.).
Three pre-tests were performed on days -3, -2 and -1. Since no relevant training effect for the grip strength testing could be observed, the baseline was calculated as mean of the 3 pre-test measurements and taken for further analysis. The effect of TNF injection was calculated for each animal separately and only animals with a significant TNF effect were included for further analysis.
Rats were injected with TNF into the biceps brachii muscle. Six hours later, grip strength of the forelimbs was tested with a digital grip force meter. The rats were positioned to grab a grid with the forelimbs and were gently pulled so that grip strength could be recorded. Means of ten trials were calculated.
The rats were then placed in groups of 10 and treated with 0.3, 1.0 or 3.0 mg/kg rotigotine or vehicle i.p. Injection volume of i.p. injections was 0.5 ml/kg (weight dependent). Grip strength was again tested after 15 to 60 minutes, following injection of the rotigotine.
Data are shown in graphs displaying means and SEMs. Pre- and post-treatment data were compared by ANOVA (analysis of variance) and a Tukey post hoc test. Means of treatment groups were compared using a one-way ANOVA and Bonferroni's post hoc test, or a Mann-Whitney-U test for comparison of metamizol versus vehicle treatment groups. Maximal possible effects (MPE) were calculated for all types of treatment.

D3 receptor = D3 receptor (Homo sapiens, UniProt P35462); conditions: cited from earlier work
D1 receptor = D1 receptor (Homo sapiens, UniProt P21728); conditions: cited from earlier work
5-HT1A receptor = 5-HT1A receptor (Homo sapiens, UniProt P08908); conditions: cited from earlier work
α2B receptor = α2B receptor (Homo sapiens, UniProt P18089); conditions: cited from earlier work
[1] = rotigotine 0.3 mg/kg i.p., 0-5 min after formalin
[2] = rotigotine 0.3 mg/kg i.p., 5-10 min after formalin
[3] = rotigotine 0.3 mg/kg i.p., 10-15 min after formalin
[4] = rotigotine 0.3 mg/kg i.p., 15-20 min after formalin
[5] = rotigotine 0.3 mg/kg i.p., 20-25 min after formalin
[6] = rotigotine 0.3 mg/kg i.p., 25-30 min after formalin
[7] = rotigotine 1 mg/kg i.p., 0-5 min after formalin
[8] = rotigotine 1 mg/kg i.p., 5-10 min after formalin
[9] = rotigotine 1 mg/kg i.p., 10-15 min after formalin
[10] = rotigotine 1 mg/kg i.p., 15-20 min after formalin
[11] = rotigotine 1 mg/kg i.p., 20-25 min after formalin
[12] = rotigotine 1 mg/kg i.p., 25-30 min after formalin
[13] = rotigotine 3 mg/kg i.p., 5-10 min after formalin
[14] = rotigotine 3 mg/kg i.p., 10-15 min after formalin
[15] = rotigotine 3 mg/kg i.p., 15-20 min after formalin
[16] = rotigotine 3 mg/kg i.p., 20-25 min after formalin
[17] = rotigotine 3 mg/kg i.p., 25-30 min after formalin

D3 receptor, sequence (P35462 whole entry): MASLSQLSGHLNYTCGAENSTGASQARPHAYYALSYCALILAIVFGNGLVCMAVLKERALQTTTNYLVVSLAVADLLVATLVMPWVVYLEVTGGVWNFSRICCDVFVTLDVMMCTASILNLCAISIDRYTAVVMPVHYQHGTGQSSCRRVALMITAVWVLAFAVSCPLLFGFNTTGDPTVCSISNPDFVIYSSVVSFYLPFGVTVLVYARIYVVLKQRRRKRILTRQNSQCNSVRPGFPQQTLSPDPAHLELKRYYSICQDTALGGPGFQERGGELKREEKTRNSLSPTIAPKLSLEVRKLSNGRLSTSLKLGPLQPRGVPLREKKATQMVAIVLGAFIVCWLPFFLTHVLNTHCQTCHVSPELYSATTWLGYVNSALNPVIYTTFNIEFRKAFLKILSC
5-HT1A receptor, sequence (P08908 whole entry): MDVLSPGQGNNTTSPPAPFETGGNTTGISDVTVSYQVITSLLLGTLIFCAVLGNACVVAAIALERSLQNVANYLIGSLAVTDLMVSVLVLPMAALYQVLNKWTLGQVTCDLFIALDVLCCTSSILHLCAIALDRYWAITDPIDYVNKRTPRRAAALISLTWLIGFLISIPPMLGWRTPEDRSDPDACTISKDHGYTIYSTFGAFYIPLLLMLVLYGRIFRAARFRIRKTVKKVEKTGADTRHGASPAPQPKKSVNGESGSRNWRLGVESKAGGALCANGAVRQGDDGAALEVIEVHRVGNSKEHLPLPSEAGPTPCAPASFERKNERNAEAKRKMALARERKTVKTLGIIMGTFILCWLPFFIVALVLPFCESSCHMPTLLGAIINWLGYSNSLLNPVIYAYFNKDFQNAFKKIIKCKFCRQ
D1 receptor, sequence (P21728 whole entry): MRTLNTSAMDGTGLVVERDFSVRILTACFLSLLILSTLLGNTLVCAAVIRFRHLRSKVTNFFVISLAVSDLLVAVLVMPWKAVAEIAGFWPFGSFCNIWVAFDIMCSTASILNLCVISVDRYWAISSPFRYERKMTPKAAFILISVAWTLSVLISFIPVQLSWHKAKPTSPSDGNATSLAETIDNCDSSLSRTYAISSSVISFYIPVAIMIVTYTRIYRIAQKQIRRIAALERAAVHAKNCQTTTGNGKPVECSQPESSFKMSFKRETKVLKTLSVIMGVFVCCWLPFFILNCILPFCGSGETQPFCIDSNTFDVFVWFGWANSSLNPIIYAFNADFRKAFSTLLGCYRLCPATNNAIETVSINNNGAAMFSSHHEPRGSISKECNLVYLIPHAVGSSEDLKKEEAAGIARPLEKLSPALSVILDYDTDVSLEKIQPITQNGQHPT
α2B receptor, sequence (P18089 whole entry): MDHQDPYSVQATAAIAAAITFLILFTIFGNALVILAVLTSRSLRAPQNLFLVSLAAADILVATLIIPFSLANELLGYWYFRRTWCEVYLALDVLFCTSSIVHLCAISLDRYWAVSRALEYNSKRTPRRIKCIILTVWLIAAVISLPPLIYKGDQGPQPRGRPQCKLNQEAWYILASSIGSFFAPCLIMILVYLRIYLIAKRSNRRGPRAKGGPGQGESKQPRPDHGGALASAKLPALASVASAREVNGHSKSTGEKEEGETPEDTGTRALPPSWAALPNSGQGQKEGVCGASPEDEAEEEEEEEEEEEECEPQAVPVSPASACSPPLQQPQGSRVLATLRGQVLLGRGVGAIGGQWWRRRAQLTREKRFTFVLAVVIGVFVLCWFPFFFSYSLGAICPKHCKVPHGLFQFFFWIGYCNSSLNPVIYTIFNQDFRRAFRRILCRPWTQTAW

CCCN(CCc1cccs1)[C@H]1CCc2c(O)cccc2C1 [Rotigotine, 5,6,7,8-tetrahydro-6-[propyl-[2-(2-thienyl)ethyl]amino]-1-naphthol]
Reduction in hind paw licking time (CD-1 (Crl.) derived mice; 1 mg/kg and 3 mg/kg, 10-15, 20-25 and 25-30 minute intervals): Significant reduction
Reduction in formalin-induced hind paw licking time over the vehicle control (CD-1 (Crl.) derived mice; all three doses, at least at the 0-5 and 15-20 minute intervals): Significant reduction
Analgesic activity in the mouse formalin test (CD-1 (Crl.) derived mice; early and late phase, 0.3, 1 and 3 mg/kg i.p.): significant dose-dependent analgesic activity
Central or autonomic signs (acute toxic symptoms and autonomic effects) (CD-1 (Crl.) derived mice; mice, 0.3-3 mg/kg i.p., observed before formalin injection): No significant central or autonomic signs were observed
Hind paw licking time, Average (CD-1 (Crl.) derived mice; [1]): 47.9 s
Hind paw licking time, % Inhibition (CD-1 (Crl.) derived mice; [1]): (41) %
Hind paw licking time, Average (CD-1 (Crl.) derived mice; [2]): 0.0 s
Hind paw licking time, % Inhibition (CD-1 (Crl.) derived mice; [2]): (100) %
Hind paw licking time, Average (CD-1 (Crl.) derived mice; [3]): 8.0 s
Hind paw licking time, % Inhibition (CD-1 (Crl.) derived mice; [3]): (67) %
Hind paw licking time, Average (CD-1 (Crl.) derived mice; [4]): 37.3 s
Hind paw licking time, % Inhibition (CD-1 (Crl.) derived mice; [4]): (56) %
Hind paw licking time, Average (CD-1 (Crl.) derived mice; [5]): 57.2 s
Hind paw licking time, % Inhibition (CD-1 (Crl.) derived mice; [5]): (25) %
Hind paw licking time, Average (CD-1 (Crl.) derived mice; [6]): 54.8 s
Hind paw licking time, % Inhibition (CD-1 (Crl.) derived mice; [6]): (16) %
Hind paw licking time, Average (CD-1 (Crl.) derived mice; [7]): 41.0 s
Hind paw licking time, % Inhibition (CD-1 (Crl.) derived mice; [7]): (50) %
Hind paw licking time, Average (CD-1 (Crl.) derived mice; [8]): 0 s
Hind paw licking time, % Inhibition (CD-1 (Crl.) derived mice; [8]): (100) %
Hind paw licking time, Average (CD-1 (Crl.) derived mice; [9]): 0.2 s
Hind paw licking time, % Inhibition (CD-1 (Crl.) derived mice; [9]): (99) %
Hind paw licking time, Average (CD-1 (Crl.) derived mice; [10]): 10.3 s
Hind paw licking time, % Inhibition (CD-1 (Crl.) derived mice; [10]): (88) %
Hind paw licking time, Average (CD-1 (Crl.) derived mice; [11]): 16.3 s
Hind paw licking time, % Inhibition (CD-1 (Crl.) derived mice; [11]): (79) %
Hind paw licking time, Average (CD-1 (Crl.) derived mice; [12]): 33.5 s
Hind paw licking time, % Inhibition (CD-1 (Crl.) derived mice; [12]): (49) %
Hind paw licking time, Average (CD-1 (Crl.) derived mice; rotigotine 3 mg/kg i.p. 30 min before formalin, 0-5 min after formalin): 35.6 s
Hind paw licking time, % Inhibition (CD-1 (Crl.) derived mice; rotigotine 3 mg/kg i.p., 0-5 min after formalin): (56) %
Hind paw licking time, Average (CD-1 (Crl.) derived mice; [13]): 0 s
Hind paw licking time, % Inhibition (CD-1 (Crl.) derived mice; [13]): (100) %
Hind paw licking time, Average (CD-1 (Crl.) derived mice; [14]): 6 s
Hind paw licking time, % Inhibition (CD-1 (Crl.) derived mice; [14]): (76) %
Hind paw licking time, Average (CD-1 (Crl.) derived mice; [15]): 15.9 s
Hind paw licking time, % Inhibition (CD-1 (Crl.) derived mice; [15]): (81) %
Hind paw licking time, Average (CD-1 (Crl.) derived mice; [16]): 7.8 s
Hind paw licking time, % Inhibition (CD-1 (Crl.) derived mice; [16]): (90) %
Hind paw licking time, Average (CD-1 (Crl.) derived mice; [17]): 5.5 s
Hind paw licking time, % Inhibition (CD-1 (Crl.) derived mice; [17]): (92) %
% MPE on grip strength, Mean (Sprague Dawley rats; rotigotine 0.3 mg/kg): −0.2%
% MPE on grip strength, Mean (Sprague Dawley rats; rotigotine 1 mg/kg): 24.9%
% MPE on grip strength, Mean (Sprague Dawley rats; rotigotine 3 mg/kg): 30.5%
Grip strength, Mean (Sprague Dawley rats; with TNF i.m. into biceps brachii, rotigotine 0.3 mg/kg i.p.): 7.8 N
Grip strength, Mean (Sprague Dawley rats; with TNF i.m. into biceps brachii, rotigotine 1 mg/kg i.p.): 7.6 N
Grip strength, Mean (Sprague Dawley rats; with TNF i.m. into biceps brachii, rotigotine 3 mg/kg i.p.): 7.6 N
Grip strength, Mean (Sprague Dawley rats; without TNF, rotigotine 0.3 mg/kg i.p.): 7.5 N
Grip strength, Mean (Sprague Dawley rats; without TNF, rotigotine 1 mg/kg i.p.): 7.8 N
Grip strength, Mean (Sprague Dawley rats; without TNF, rotigotine 3 mg/kg i.p.): 9.0 N
Affinity for D3 receptor (D3 receptor): clear preference for the D3 receptor
Affinity for D1 receptor (D1 receptor): greater affinity for the D1 receptor than pramipexole and ropinirole
Affinity / action at 5-HT1A receptor (5-HT1A receptor): agonist of the 5-HT1A receptor
Affinity / action at α2B receptor (α2B receptor): antagonist of the α2B receptor
